Results on one compound are retold here after US20180085345A1, “METHODS OF TRACKING SKIN CONDITIONS USING CYCLOLIGNAN COMPOUNDS” (m. Alphabet 2, L.L.C., priority 2015, published 2018).

One data set relates to actinic keratoses. Put plainly: Randomized, blinded study of topical picropodophyllin solution in actinic keratoses: lesion count in the treatment area. In kind it is in vivo, patients. As to conditions: topical twice daily for 1 week. As for the experimental part: To date, 56 patients have been studied to determine the efficacy of picropodophyllin in treating actinic keratoses. The patients were randomized into four groups, and the patients in each group were treated with a solution containing either 0.5%, 1.25%, or 2.0% picropodophyllin (w/v) in propylene glycol, or a placebo constituting only the vehicle propylene glycol. The picropodophyllin solution was prepared in 100% propylene glycol solution. The solutions were prepared aseptically following GMP protocols. The affected areas of the body variously included the scalp, face, arms, and legs. Without knowing which one of the four solutions they were applying, the subjects self-applied one of the solutions to the skin. After initial application, the subjects gently massaged the solutions into their skin. This was done twice daily for 1 week. Lesions (actinic keratosis) were palpated and visualized by a trained lesion counter who is a board certified dermatologist. The same investigator evaluated each subject at each visit for consistency. The subjects were evaluated at baseline, day 3, day 7, day 14, day 28, day 56 and day 90. Within the treatment area, the number of lesions were counted, regardless of their size. The change in the number of lesions (% decline from baseline) within the treatment area was calculated and the results are shown in the table below: […]

Data set [1] deals with insulin-like growth factor-1 (IGF-1). The following applies: shown in WO 02/102804; cited from earlier work.
The conditions of data set [2]: cited from earlier work.

For the compound `COc1cc([C@@H]2c3cc4c(cc3[C@H](O)[C@H]3COC(=O)[C@@H]23)OCO4)cc(OC)c1OC` [PPP, picropodophyllin], the “% Decline from Baseline (number of lesions within the treatment area)” value in the data set with actinic keratoses (0.50% w/v in propylene glycol, 28 days) is −56^AB %; in the data set with actinic keratoses (0.50% w/v in propylene glycol, 56 days), −82^AB %; with actinic keratoses (0.50% w/v in propylene glycol, 90 days) it was −90^AB %; in the data set on actinic keratoses (1.25% w/v in propylene glycol, 28 days), −53^AB %; in the data set with actinic keratoses (1.25% w/v in propylene glycol, 56 days), −73^AB %; with actinic keratoses (1.25% w/v in propylene glycol, 90 days), −65^AB %. Moreover, the “% Decline from Baseline (number of lesions within the treatment area)” value in the data set on actinic keratoses (2.00% w/v in propylene glycol, 28 days) is listed as −17%; in the data set with actinic keratoses (2.00% w/v in propylene glycol, 56 days), −55^AB %; with actinic keratoses (2.00% w/v in propylene glycol, 90 days), −84^AB %. Moreover, the “inhibition of insulin-like growth factor-1 (IGF-1)” value in data set [1] is “potent inhibitor”. Moreover, the solubility in water result in data set [2] is given as “nearly completely insoluble”.
